Test results from patent US11634624B2, “Surfactants for enhanced oil recovery” (MOL MAGYAR OLAJ- ÉS GÁZIPARI NYILVÁNOSAN MŰKÖDŐ …, priority 2018, dated 2023).

Experiment: Interfacial tension (IFT), spinning drop
Assay type: physicochemical
Details: 0.1 g/l; 40° C., 4500 rpm
Experimental: The interfacial tension (IFT) in the following examples is measured in a spinning drop type tensile meter at 4500 rpm at 40° C. temperature. The test capillary was filled with various concentrations of surfactant solution into which a drop of oil of Algyő type oil was injected through a syringe. In steady state, the interfacial tension between the surfactant solution and the crude oil can be calculated based on the geometric dimensions of the droplet taken by the oil drop.

| Molecule | IFT (mN/m) 0.1 g/l |
| --- | --- |
| CCCCCCCCCCCCc1ccc(S(=O)(=O)O)cc1.CCCCCCCCCCCCc1ccc(S(=O)(=O)O)cc1.NCCCCCCN [Example 21] | 0.019 mN/m |
| CCCCCCCCCCCCc1ccc(S(=O)(=O)O)cc1.CCCCCCCCCCCCc1ccc(S(=O)(=O)O)cc1.NCCCCN [Example 23] | 0.120 mN/m |
| CCCCCCCCCCCCc1ccc(S(=O)(=O)O)cc1.CCCCCCCCCCCCc1ccc(S(=O)(=O)O)cc1.NCCCOCCCCOCCCN [Example 24] | 0.042 mN/m |
| CCCCCCCCCCCCc1ccc(S(=O)(=O)O)cc1.CCCCCCCCCCCCc1ccc(S(=O)(=O)O)cc1.CN(C)CCCNCCCN(C)C.Cl [Example 38] | 0.15 mN/m |

Same assay, conditions: 1.0 g/l; 40° C., 4500 rpm

| Molecule | IFT (mN/m) 1.0 g/l |
| --- | --- |
| CCCCCCCCCCCCc1ccc(S(=O)(=O)O)cc1.CCCCCCCCCCCCc1ccc(S(=O)(=O)O)cc1.NCCCCCCN [Example 21] | 0.015 mN/m |
| CCCCCCCCCCCCc1ccc(S(=O)(=O)O)cc1.CCCCCCCCCCCCc1ccc(S(=O)(=O)O)cc1.NCCCCN [Example 23] | 0.170 mN/m |
| CCCCCCCCCCCCc1ccc(S(=O)(=O)O)cc1.CCCCCCCCCCCCc1ccc(S(=O)(=O)O)cc1.NCCCOCCCCOCCCN [Example 24] | 0.103 mN/m |
| CCCCCCCCCCCCc1ccc(S(=O)(=O)O)cc1.CCCCCCCCCCCCc1ccc(S(=O)(=O)O)cc1.CN(C)CCCNCCCN(C)C.Cl [Example 38] | 0.16 mN/m |

Same assay, conditions: commercial surfactants, 0.1 g/l

| Molecule | IFT (mN/m), concentration 0.1 g/l |
| --- | --- |
| CCCCCCCCCCCCc1ccc(S(=O)(=O)[O-])cc1.[Na+] [DBSNa-salt 30% solution, Sodium salt of dodecylbenzylsulfonic acid, reference compound] | 0.34 mN/m |
| CC(O)CO (stereo not drawn) [Propylene glycol, reference compound] | 11.53 mN/m |

Same assay, conditions: commercial surfactants, 1 g/l

| Molecule | IFT (mN/m), concentration 1 g/l |
| --- | --- |
| CCCCCCCCCCCCc1ccc(S(=O)(=O)[O-])cc1.[Na+] [DBSNa-salt 30% solution, Sodium salt of dodecylbenzylsulfonic acid, reference compound] | 0.63 mN/m |
| CC(O)CO (stereo not drawn) [Propylene glycol, reference compound] | 16.14 mN/m |

Same assay, conditions: commercial surfactants, 5 g/l

| Molecule | IFT (mN/m), concentration 5 g/l |
| --- | --- |
| CCCCCCCCCCCCc1ccc(S(=O)(=O)[O-])cc1.[Na+] [DBSNa-salt 30% solution, Sodium salt of dodecylbenzylsulfonic acid, reference compound] | 0.88 mN/m |
| CC(O)CO (stereo not drawn) [Propylene glycol, reference compound] | 15.4 mN/m |

Experiment: Oil solubility (turbidity of 1% in model oil)
Assay type: physicochemical
Details: symbol or word
Experimental: In the course of the test, 0.2 g of the surfactant to be tested is weighed into 20 g of model oil and then dissolved for 1 hour at 60° C. with vigorous stirring. After cooling, the samples were poured into a clean, dry cuvette and then scattered at 500 nm with a spectrophotometer at ambient temperature. As reference, the light scattering of pure oil (0%) and standard opal body (100%) is used.

| Molecule | Solubility in oil, appearance / dissolution |
| --- | --- |
| CCCCCCCCCCCCc1ccc(S(=O)(=O)O)cc1.CCCCCCCCCCCCc1ccc(S(=O)(=O)O)cc1.NCCCCCCN [Example 21] | n.o. |
| CCCCCCCCCCCCc1ccc(S(=O)(=O)O)cc1.CCCCCCCCCCCCc1ccc(S(=O)(=O)O)cc1.NCCCCN [Example 23] | n.o. |
| CCCCCCCCCCCCc1ccc(S(=O)(=O)O)cc1.CCCCCCCCCCCCc1ccc(S(=O)(=O)O)cc1.NCCCOCCCCOCCCN [Example 24] | op. |

Same assay, conditions: turbidity number

| Molecule | Solubility in oil (%) |
| --- | --- |
| CCCCCCCCCCCCc1ccc(S(=O)(=O)O)cc1.CCCCCCCCCCCCc1ccc(S(=O)(=O)O)cc1.NCCCOCCCCOCCCN [Example 24] | 18% |

Experiment: not given
Assay type: physicochemical
Details: not given
From the text: For the test, the prepared surfactant solution samples were filled into a clean, dry cuvette and then scattered in a spectrophotometer at 500 nm wavelength using a nephelometric pad at ambient temperature. The turbidity of the sample to be tested is compared to the light scattering of pure water (0%) and the reference opal body (100%).

| Water solubility | Molecule | Water solubility (%) | Water solubility, appearance |
| --- | --- | --- | --- |
| 100% | 2-methylpentane-1,5-diammonium-bis(C14-C17 sec-alkylsulphonate) [Example 5] | 100% | m. |
| – | CCCCCCCCCCCCc1ccc(S(=O)(=O)O)cc1.CCCCCCCCCCCCc1ccc(S(=O)(=O)O)cc1.NCCCCCCN [Example 21] | 100% | m. |
| – | CCCCCCCCCCCCc1ccc(S(=O)(=O)O)cc1.CCCCCCCCCCCCc1ccc(S(=O)(=O)O)cc1.NCCCCN [Example 23] | 100% | m. |
| – | CCCCCCCCCCCCc1ccc(S(=O)(=O)O)cc1.CCCCCCCCCCCCc1ccc(S(=O)(=O)O)cc1.NCCCOCCCCOCCCN [Example 24] | 100% | m. |
| 4% | bis(C14-C17 sec-alkyl)-sulphonate-poly (propylene-glycol)-bis-(2-ammonium-propyl)-ether salt [Example 3] | – | – |

Experiment: Thermal (heat/hydrolytic) stability, 90° C., 3 hours, transmittance
Assay type: physicochemical
Details: appearance symbol

| Molecule | Heat stability (90° C., 3 hours), appearance |
| --- | --- |
| CCCCCCCCCCCCc1ccc(S(=O)(=O)O)cc1.CCCCCCCCCCCCc1ccc(S(=O)(=O)O)cc1.NCCCCCCN [Example 21] | m. |
| CCCCCCCCCCCCc1ccc(S(=O)(=O)O)cc1.CCCCCCCCCCCCc1ccc(S(=O)(=O)O)cc1.NCCCCN [Example 23] | b. |
| CCCCCCCCCCCCc1ccc(S(=O)(=O)O)cc1.CCCCCCCCCCCCc1ccc(S(=O)(=O)O)cc1.NCCCOCCCCOCCCN [Example 24] | op. |
| CCCCCCCCCCCCc1ccc(S(=O)(=O)O)cc1.CCCCCCCCCCCCc1ccc(S(=O)(=O)O)cc1.CN(C)CCCNCCCN(C)C.Cl [Example 38] | op. |

Same assay, conditions: turbidity number

| Molecule | Heat stability (90° C., 3 hours) (%) |
| --- | --- |
| CCCCCCCCCCCCc1ccc(S(=O)(=O)O)cc1.CCCCCCCCCCCCc1ccc(S(=O)(=O)O)cc1.NCCCCCCN [Example 21] | 100% |
| CCCCCCCCCCCCc1ccc(S(=O)(=O)O)cc1.CCCCCCCCCCCCc1ccc(S(=O)(=O)O)cc1.NCCCCN [Example 23] | 20% |
| CCCCCCCCCCCCc1ccc(S(=O)(=O)O)cc1.CCCCCCCCCCCCc1ccc(S(=O)(=O)O)cc1.NCCCOCCCCOCCCN [Example 24] | 100% |
| CCCCCCCCCCCCc1ccc(S(=O)(=O)O)cc1.CCCCCCCCCCCCc1ccc(S(=O)(=O)O)cc1.CN(C)CCCNCCCN(C)C.Cl [Example 38] | 31% |
